Experimental data from US9580444B2, “Polycyclic pyrazolinone derivative and herbicide comprising same as effective component thereof” (priority 2013, dated 2017).

How the values were obtained:
Type in all cases: in vivo
[1] = test system: corn; assay: Test Example-4: phytotoxicity by a foliage treatment after weeds are generated under upland field conditions; conditions: 500 g a.i/ha, foliage treatment after emergence, about 14 days after treatment, score 0-5
In short: (§1)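 Read-out is a visual six-stage score from 0 to 5 for weed control or corn phytotoxicity, taken about 14 days after a uniform foliar spray. Plants had grown 14 days from seed in upland soil before the compound was applied at a predetermined dosage in 4000 L water per hectare.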

[2] = test system: Abutilon theophrasti (velvetleaf); assay: Test Example-4: herbicidal effect by a foliage treatment after weeds are generated under upland field conditions; conditions: 500 g a.i/ha, foliage treatment after emergence, about 14 days after treatment, score 0-5
In short: as §1

[3] = test system: Chenopodium album (common lambsquarters); assay: as above; conditions: 500 g a.i/ha, foliage treatment after emergence, about 14 days after treatment, score 0-5
In short: as §1

[4] = test system: Amaranthus viridis (green amaranthus); assay: as above; conditions: 500 g a.i/ha, foliage treatment after emergence, about 14 days after treatment, score 0-5
In short: as §1

[5] = test system: Monochoria vaginalis (monochoria); assay: Test Example-1: herbicidal effect by a treatment before weeds are generated under submerged conditions; conditions: 500 g a.i/ha, pre-emergence treatment, about 15 days after treatment, score 0-5
In short: (§2)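 Weed seeds were sown in puddled paddy soil under flooding, then the diluted formulated compound was added to the water the same day at a predetermined dosage, and weed control was rated roughly 15 days afterwards in six stages (0–5).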

[6] = test system: Cyperus difformis (smallflower umbrella plant); assay: as above; conditions: 500 g a.i/ha, pre-emergence treatment, about 15 days after treatment, score 0-5
In short: as §2

[7] = test system: other annual broad leaf weeds (Lindernia procumbens, Rotala indica, Elatine triandra); assay: as above; conditions: 500 g a.i/ha, pre-emergence treatment, about 15 days after treatment, score 0-5
In short: as §2

[8] = test system: Echinochloa oryzicola (barnyard grass); assay: as above; conditions: 500 g a.i/ha, pre-emergence treatment, about 15 days after treatment, score 0-5
In short: as §2

[9] = test system: Scirpus juncoides (bulrush); assay: as above; conditions: 500 g a.i/ha, pre-emergence treatment, about 15 days after treatment, score 0-5
In short: as §2

[10] = test system: Eleocharis acicularis (needle spikerush); assay: as above; conditions: 500 g a.i/ha, pre-emergence treatment, about 15 days after treatment, score 0-5
In short: as §2

SMILES	Phytotoxicity Corn [1]	Herbicidal effect Abutilon theophrast [2]	Herbicidal effect Chenopodium album [3]	Herbicidal effect Amaranthus viridis [4]	Herbicidal effect Monochoria vaginalis [5]	Herbicidal effect Cyperus difformis [6]	Herbicidal effect Broadleaf weed [7]	Herbicidal effect Echinochloa oryzicola [8]	Herbicidal effect Scirpus juncoides [9]	Herbicidal effect Eleocharis acicularis [10]
C#CCOc1cc(-c2c(F)n3n(c2=O)CCOCC3)c(Cl)cc1Cl [Example 1-364]	1 (Herbicidal effect/phytotoxicity was 10% to 30%)	5 (Herbicidal effect/phytotoxicity was 90% or greater)	5 (Herbicidal effect/phytotoxicity was 90% or greater)	5 (Herbicidal effect/phytotoxicity was 90% or greater)	5 (Herbicidal effect/phytotoxicity was 90% or greater)	5 (Herbicidal effect/phytotoxicity was 90% or greater)	5 (Herbicidal effect/phytotoxicity was 90% or greater)	5 (Herbicidal effect/phytotoxicity was 90% or greater)	5 (Herbicidal effect/phytotoxicity was 90% or greater)	5 (Herbicidal effect/phytotoxicity was 90% or greater)
CC=CCOc1cc(-c2c(Cl)n3n(c2=O)CCCC3)c(F)cc1Cl [Example 1-209]	2 (Herbicidal effect/phytotoxicity was 30% to 50%)	5 (Herbicidal effect/phytotoxicity was 90% or greater)	5 (Herbicidal effect/phytotoxicity was 90% or greater)	5 (Herbicidal effect/phytotoxicity was 90% or greater)	5 (Herbicidal effect/phytotoxicity was 90% or greater)	5 (Herbicidal effect/phytotoxicity was 90% or greater)	5 (Herbicidal effect/phytotoxicity was 90% or greater)	5 (Herbicidal effect/phytotoxicity was 90% or greater)	5 (Herbicidal effect/phytotoxicity was 90% or greater)	5 (Herbicidal effect/phytotoxicity was 90% or greater)
CC(C)COc1cc(-c2c(Cl)n3n(c2=O)CCCC3)c(F)cc1Cl [Example 1-156]	2 (Herbicidal effect/phytotoxicity was 30% to 50%)	5 (Herbicidal effect/phytotoxicity was 90% or greater)	5 (Herbicidal effect/phytotoxicity was 90% or greater)	5 (Herbicidal effect/phytotoxicity was 90% or greater)	5 (Herbicidal effect/phytotoxicity was 90% or greater)	5 (Herbicidal effect/phytotoxicity was 90% or greater)	5 (Herbicidal effect/phytotoxicity was 90% or greater)	5 (Herbicidal effect/phytotoxicity was 90% or greater)	5 (Herbicidal effect/phytotoxicity was 90% or greater)	5 (Herbicidal effect/phytotoxicity was 90% or greater)
CC#CCOc1cc(-c2c(Cl)n3n(c2=O)CCCC3)c(F)cc1F [Example 1-115]	3 (Herbicidal effect/phytotoxicity was 50% to 70%)	5 (Herbicidal effect/phytotoxicity was 90% or greater)	5 (Herbicidal effect/phytotoxicity was 90% or greater)	5 (Herbicidal effect/phytotoxicity was 90% or greater)	5 (Herbicidal effect/phytotoxicity was 90% or greater)	5 (Herbicidal effect/phytotoxicity was 90% or greater)	5 (Herbicidal effect/phytotoxicity was 90% or greater)	5 (Herbicidal effect/phytotoxicity was 90% or greater)	5 (Herbicidal effect/phytotoxicity was 90% or greater)	5 (Herbicidal effect/phytotoxicity was 90% or greater)
O=c1c(-c2cc(OC3CCCC3)c(Cl)cc2Cl)c(Cl)n2n1CCCC2 [Example 1-307]	0 (Herbicidal effect/phytotoxicity was 0% to 10%)	5 (Herbicidal effect/phytotoxicity was 90% or greater)	5 (Herbicidal effect/phytotoxicity was 90% or greater)	5 (Herbicidal effect/phytotoxicity was 90% or greater)	5 (Herbicidal effect/phytotoxicity was 90% or greater)	5 (Herbicidal effect/phytotoxicity was 90% or greater)	5 (Herbicidal effect/phytotoxicity was 90% or greater)	5 (Herbicidal effect/phytotoxicity was 90% or greater)	5 (Herbicidal effect/phytotoxicity was 90% or greater)	5 (Herbicidal effect/phytotoxicity was 90% or greater)
O=c1c(-c2cc(OCC3CCCCC3)c(Cl)cc2F)c(Cl)n2n1CCCC2 [Example 1-188]	0 (Herbicidal effect/phytotoxicity was 0% to 10%)	5 (Herbicidal effect/phytotoxicity was 90% or greater)	5 (Herbicidal effect/phytotoxicity was 90% or greater)	5 (Herbicidal effect/phytotoxicity was 90% or greater)	5 (Herbicidal effect/phytotoxicity was 90% or greater)	5 (Herbicidal effect/phytotoxicity was 90% or greater)	5 (Herbicidal effect/phytotoxicity was 90% or greater)	5 (Herbicidal effect/phytotoxicity was 90% or greater)	5 (Herbicidal effect/phytotoxicity was 90% or greater)	5 (Herbicidal effect/phytotoxicity was 90% or greater)
C=CCCOc1cc(-c2c(Cl)n3n(c2=O)CCCC3)c(F)cc1Cl [Example 1-222]	2 (Herbicidal effect/phytotoxicity was 30% to 50%)	5 (Herbicidal effect/phytotoxicity was 90% or greater)	5 (Herbicidal effect/phytotoxicity was 90% or greater)	5 (Herbicidal effect/phytotoxicity was 90% or greater)	5 (Herbicidal effect/phytotoxicity was 90% or greater)	5 (Herbicidal effect/phytotoxicity was 90% or greater)	5 (Herbicidal effect/phytotoxicity was 90% or greater)	5 (Herbicidal effect/phytotoxicity was 90% or greater)	5 (Herbicidal effect/phytotoxicity was 90% or greater)	5 (Herbicidal effect/phytotoxicity was 90% or greater)
CC#CCOc1cc(-c2c(Cl)n3n(c2=O)CCCC3)c(F)cc1Cl [Example 1-246]	1 (Herbicidal effect/phytotoxicity was 10% to 30%)	5 (Herbicidal effect/phytotoxicity was 90% or greater)	5 (Herbicidal effect/phytotoxicity was 90% or greater)	5 (Herbicidal effect/phytotoxicity was 90% or greater)	5 (Herbicidal effect/phytotoxicity was 90% or greater)	5 (Herbicidal effect/phytotoxicity was 90% or greater)	5 (Herbicidal effect/phytotoxicity was 90% or greater)	5 (Herbicidal effect/phytotoxicity was 90% or greater)	5 (Herbicidal effect/phytotoxicity was 90% or greater)	5 (Herbicidal effect/phytotoxicity was 90% or greater)
